From paper PMC9502897, “Design, Synthesis and Structure—Activity Relationships of Phenylalanine-Containing Peptidomimetics as Novel HIV-1 Capsid Binders Based on Ugi Four-Component Reaction” (Molecules, 2022)

Columns and labels:
HIV-1 = test: Anti-HIV-1 activity in MT-4 cells (MTT method); type: cell-based; conditions: for EC50: MT-4 cells, 50% protection against HIV-induced cytopathicity, MTT method; for anti-HIV activity: R2 1-methylnaphthalene replaced by 2-methylnaphthalene, HIV-1/HIV-2, MT-4 cells
Experimental: (§1) The evaluation of the antiviral activity of the compounds against HIV in MT-4 cells was performed using the MTT assay as described below. Stock solutions (10 × final concentration) of test compounds were added in 25 μL volumes to two series of triplicate wells to allow simultaneous evaluation of their effects on mock- and HIV-infected cells at the beginning of each experiment. Serial 5-fold dilutions of test compounds were made directly in flat-bottomed 96-well microtiter trays using a Biomek 3000 robot (Beckman Instruments, Fullerton, CA). Untreated HIV- and mock-infected cell samples were included as controls. HIV stock ([…]) at 100–300 CCID50 (50% cell culture infectious doses) or culture medium was added to either the infected or mock-infected wells of the microtiter tray. Mock-infected cells were used to evaluate the effects of the test compound on uninfected cells to assess the test compounds’ cytotoxicity. Exponentially growing MT-4 cells were centrifuged for 5 min at 220 g, and the supernatant was discarded. The MT-4 cells were resuspended at 6 × 10^5 cells/mL, and 50 μL volumes were transferred to the microtiter tray wells. Five days after infection, the viability of mock- and HIV-infected cells was examined spectrophotometrically using the MTT assay. The MTT assay is based on the reduction of yellow-colored 3-(4,5-dimethylthiazol-2-yl)-2,5-diphenyltetrazolium bromide (MTT) (Acros Organics) by mitochondrial dehydrogenase activity in metabolically active cells to a blue-purple formazan that can be measured spectrophotometrically. The absorbances were read in an eight-channel computer-controlled photometer (Infinite M1000, Tecan) at two wavelengths (540 and 690 nm). All data were calculated using the median absorbance value of three wells.

MT-4 cells = test: in vitro
Experimental: as §1

HIV-2 = test: Anti-HIV-2 activity in MT-4 cells (MTT method); type: cell-based
Experimental: as §1

HIV-1 NL4-3 CA hexamer = HIV-1 NL4-3 CA hexamer (Human immunodeficiency virus type 1 group M subtype B, UniProt P12493, A146C/E177C/M317A/W316A); test: SPR binding to disulfide-stabilized NL4-3 CA hexamer
in vitro = conditions: human
Experimental: as §1

HIV-1 NL4-3 CA monomer = molecular target: T1, HIV-1 NL4-3 CA monomer (Human immunodeficiency virus type 1 group M subtype B, UniProt P12493); test: biochemical; type: binding; conditions: SPR
T1 construct: the HIV-1 NL4-3 capsid protein constructs; His6 (C); made in house; host or cells: E. coli BL21-Codon Plus (DE3)-RIL

[1] = metabolic stability; cited from earlier work
HIV = conditions: moderate activity; cited from earlier work
[2] = Human immunodeficiency virus 1, MT4
[3] = Human immunodeficiency virus 2, MT4, 50% protection against HIV-induced cytopathicity
[4] = 50% protection against HIV-induced cytopathicity

Compound	EC50 (HIV-1; [2]) [µM]	CC50 (MT-4 cells; human, 5 days) [µM]	EC50 (HIV-2; [3]) [µM]	further results
COc1ccc(N(C)C(=O)[C@H](Cc2cc(F)cc(F)c2)NC(=O)CN(Cc2ccccc2)C(=O)Cc2ccc3ccccc3c2)cc1 [I-22, (S)-2-(2-(N-benzyl-2-(naphthalen-2-yl)acetamido)acetamido)-3-(3,5-difluorophenyl)-N-(4-methoxyphenyl)-N-methylpropanamide]	> 176	176 ± 7.35	> 18.9	
COc1ccc(N(C)C(=O)[C@H](Cc2cc(F)cc(F)c2)NC(=O)CN(Cc2ccc(F)cc2)C(=O)Cc2ccc3ccccc3c2)cc1 [I-6, (S)-3-(3,5-difluorophenyl)-2-(2-(N-(4-fluorobenzyl)-2-(naphthalen-2-yl)acetamido)acetamido)-N-(4-methoxyphenyl)-N-methylpropanamide]	> 160	> 160	> 160	anti-HIV activity (HIV-1): lost
COc1ccc(N(C)C(=O)[C@H](Cc2cc(F)cc(F)c2)NC(=O)CN(Cc2ccc(F)cc2)C(=O)Cn2nc(C(F)(F)F)c3c2CCCC3)cc1 [I-19, (S)-3-(3,5-difluorophenyl)-2-(2-(N-(4-fluorobenzyl)-2-(3-(trifluoromethyl)-4,5,6,7-tetrahydro-1H-indazol-1-yl)acetamido)acetamido)-N-(4-methoxyphenyl)-N-methylpropanamide]	2.53 ± 0.84		12.9 ± 3.72	Koff Hexamer (HIV-1 NL4-3 CA hexamer; 1:1 binding model): 0.00758 ± 0.000504 S^−1; Kon Hexamer (HIV-1 NL4-3 CA hexamer; 1:1 binding model): 628 ± 152 M^−1S^−1; Kd (HIV-1 NL4-3 CA hexamer; 25 °C, at least 3 replicates): 36.9 µM; melting point: 46 to 48 °C; CC50 at 5 days (in vitro; CC50): 108 ± 27.4 µM; Ratio KD (monomer)/KD(hexamer) (HIV-1 NL4-3 CA monomer): 0.36; Koff Monomer (HIV-1 NL4-3 CA monomer; 1:1 binding model): 0.0301 ± 0.0172 S^−1; Kon Monomer (HIV-1 NL4-3 CA monomer; 1:1 binding model): 4160 ± 1670 M^−1S^−1; Kd (HIV-1 NL4-3 CA monomer; 25 °C, at least 3 replicates): 13.3 µM
COc1ccc(N(C)C(=O)[C@H](Cc2cc(F)cc(F)c2)NC(=O)CN(Cc2ccc(F)cc2)C(=O)Cc2cccc3ccccc23)cc1 [I-8, (S)-3-(3,5-difluorophenyl)-2-(2-(N-(4-fluorobenzyl)-2-(naphthalen-1-yl)acetamido)acetamido)-N-(4-methoxyphenyl)-N-methylpropanamide]	> 191	> 191	5.87 ± 1.79	
COc1ccc(N(C)C(=O)[C@H](Cc2cc(F)cc(F)c2)NC(=O)CN(Cc2ccc(C#N)cc2)C(=O)Cc2ccc3ccccc3c2)cc1 [I-13, (S)-2-(2-(N-(4-cyanobenzyl)-2-(naphthalen-2-yl)acetamido)acetamido)-3-(3,5-difluorophenyl)-N-(4-methoxyphenyl)-N-methylpropanamide]	> 189	> 189	161 ± 26	anti-HIV activity (HIV-1): lost
Cc1[nH]c2ccccc2c1CC(=O)NC(Cc1ccccc1)C(=O)N(C)c1ccccc1 (stereo not shown) [PF-74, reference compound]	0.26 ± 0.08		> 2.22	T1/2 [1]: 30 to 78 s; EC50 (HIV): 0.52 to 0.9 µM; CC50 at 5 days (in vitro; CC50): 73.8 ± 7.54 µM; EC50 (HIV-2; [4]): 2.22 ± 0.31 µM
(S)-2-(2-(2-(5-bromo-2-methyl-1H-indol-3-yl)-N-(4-cyanobenzyl)acetamido)acetamido)-3-(3,5-difluorophenyl)-N-(4-methoxyphenyl)-N-methylpropanamide [I-16]				EC50 (HIV-1): 5.61 ± 1.18 µM; CC50 (MT-4 cells): 87.6 ± 62.2 µM; EC50 (HIV-2; [4]): 15.7 ± 13.3 µM
COc1ccc(N(C)C(=O)[C@H](Cc2cc(F)cc(F)c2)NC(=O)CN(CC2CCCCC2)C(=O)Cc2c[nH]c3ccc(Br)cc23)cc1 [I-10, (S)-2-(2-(2-(5-bromo-1H-indol-3-yl)-N-(cyclohexylmethyl)acetamido)acetamido)-3-(3,5-difluorophenyl)-N-(4-methoxyphenyl)-N-methylpropanamide]	> 17.6	17.6 ± 2.41	> 17.6	
COc1ccc(N(C)C(=O)[C@H](Cc2cc(F)cc(F)c2)NC(=O)CN(Cc2ccc(F)cc2)C(=O)Cc2ccc(B3OC(C)(C)C(C)(C)O3)cc2)cc1 [I-12, (S)-3-(3,5-difluorophenyl)-2-(2-(N-(4-fluorobenzyl)-2-(4-(4,4,5,5-tetramethyl-1,3,2-dioxaborolan-2-yl)phenyl)acetamido)acetamido)-N-(4-methoxyphenyl)-N-methylpropanamide]	11.7 ± 2.07	65.4 ± 16.8	13.2 ± 2.6	
COc1ccc(N(C)C(=O)[C@H](Cc2cc(F)cc(F)c2)NC(=O)CN(Cc2ccc(F)cc2)C(=O)Cc2ccc(B(O)O)cc2)cc1 [I-23, (S)-(4-(2-((2-((3-(3,5-difluorophenyl)-1-((4-methoxyphenyl)(methyl)amino)-1-oxopropan-2-yl)amino)-2-oxoethyl)(4-fluorobenzyl)amino)-2-oxoethyl)phenyl) boronic acid]	4.33 ± 1.32	18.9 ± 3.59	6.8 ± 0.36	
COc1ccc(N(C)C(=O)[C@H](Cc2cc(F)cc(F)c2)NC(=O)CN(CC2CCCCC2)C(=O)Cn2nc(C(F)(F)F)cc2C)cc1 [I-20, (S)-2-(2-(N-(cyclohexylmethyl)-2-(5-methyl-3-(trifluoromethyl)-1H-pyrazol-1-yl)acetamido)acetamido)-3-(3,5-difluorophenyl)-N-(4-methoxyphenyl)-N-methylpropanamide]	30.3 ± 3.24	45.7 ± 5.36	24.9 ± 12	
COc1ccc(N(C)C(=O)[C@H](Cc2cc(F)cc(F)c2)NC(=O)CN(Cc2ccc(C#N)cc2)C(=O)Cc2cccc3ccccc23)cc1 [I-14, (S)-2-(2-(N-(4-cyanobenzyl)-2-(naphthalen-1-yl)acetamido)acetamido)-3-(3,5-difluorophenyl)-N-(4-methoxyphenyl)-N-methylpropanamide]	> 189	> 189	2.3 ± 0.11	
COc1ccc(N(C)C(=O)[C@H](Cc2cc(F)cc(F)c2)NC(=O)CN(Cc2ccc(F)cc2)C(=O)Cc2c[nH]c3ccc(Br)cc23)cc1 [I-9, (S)-2-(2-(2-(5-bromo-1H-indol-3-yl)-N-(4-fluorobenzyl)acetamido)acetamido)-3-(3,5-difluorophenyl)-N-(4-methoxyphenyl)-N-methylpropanamide]	2.93 ± 0.32	17.8 ± 1.04	> 17.8	
COc1ccc(N(C)C(=O)[C@H](Cc2cc(F)cc(F)c2)NC(=O)CN(Cc2ccccc2)C(=O)Cc2c(C)[nH]c3ccccc23)cc1 [I-21, (S)-2-(2-(N-benzyl-2-(2-methyl-1H-indol-3-yl)acetamido)acetamido)-3-(3,5-difluorophenyl)-N-(4-methoxyphenyl)-N-methylpropanamide]	2.77 ± 0.77	28.6 ± 0.86	6.52 ± 0.6	
COc1ccc(N(C)C(=O)[C@H](Cc2cc(F)cc(F)c2)NC(=O)CN(Cc2ccc(C#N)cc2)C(=O)Cc2ccc(B3OC(C)(C)C(C)(C)O3)cc2)cc1 [I-17, (S)-2-(2-(N-(4-cyanobenzyl)-2-(4-(4,4,5,5-tetramethyl-1,3,2-dioxaborolan-2-yl)phenyl)acetamido)acetamido)-3-(3,5-difluorophenyl)-N-(4-methoxyphenyl)-N-methylpropanamide]	17.7 ± 4.6	52.4 ± 14.2	16.2 ± 4.59	
COc1ccc(N(C)C(=O)[C@H](Cc2cc(F)cc(F)c2)NC(=O)CN(Cc2ccc(F)cc2)C(=O)Cc2c(C)[nH]c3ccccc23)cc1 [I-7, (S)-3-(3,5-difluorophenyl)-2-(2-(N-(4-fluorobenzyl)-2-(2-methyl-1H-indol-3-yl)acetamido)acetamido)-N-(4-methoxyphenyl)-N-methylpropanamide]	2.79 ± 0.19	22.6 ± 0.96	> 22.6	
COc1ccc(N(C)C(=O)[C@H](Cc2cc(F)cc(F)c2)NC(=O)CN(C(=O)Cc2ccc(B3OC(C)(C)C(C)(C)O3)cc2)C2CC2)cc1 [I-18, (S)-2-(2-(N-cyclopropyl-2-(4-(4,4,5,5-tetramethyl-1,3,2-dioxaborolan-2-yl)phenyl)acetamido)acetamido)-3-(3,5-difluorophenyl)-N-(4-methoxyphenyl)-N-methylpropanamide]	5.18 ± 1.11	89 ± 17.1	9.71 ± 0.8	
Cc1ccnc2c1NC(=O)c1cccnc1N2C1CC1 [NVP, nevirapine, reference compound]			> 15	CC50 (MT-4 cells; uninfected MT-4 cells, viability reduced by 50%, MTT method): > 15 µM; CC50 at 5 days (in vitro; mock-infected (uninfected) MT-4 cells, CC50, uninfected MT-4 cells, viability reduced by 50%, MTT method): > 15.2 µM
(S)-2-(2-(N-(4-cyanobenzyl)-2-(5-fluoro-2-methyl-1H-indol-3-yl)acetamido)acetamido)-3-(3,5-difluorophenyl)-N-(4-methoxyphenyl)-N-methylpropanamide [I-15]				EC50 (HIV-1): 17.2 ± 9.98 µM; CC50 (MT-4 cells): 148 ± 16.6 µM; EC50 (HIV-2; [4]): 5.81 ± 1.11 µM
